ChEMBL document CHEMBL1147509, “Pharmacology of the agonist binding sites of rat neuronal nicotinic receptor subtypes expressed in HEK 293 cells” (Bioorg Med Chem Lett, 2004)
pKi: −log10 of the molar value.

Tests used:
[1] = Ratio between the binding affinities towards rat alpha4-beta4 and alpha4-beta2 nACh receptor using [3H]EB as radioligand
[2] = target: Neuronal acetylcholine receptor; test: Binding affinity towards rat forebrain nicotinic acetylcholine receptor using [3H]EB as radioligand
[3] = Binding affinity towards rat alpha2-beta4 nACh receptor expressed in HEK293 cells using [3H]EB as radioligand; type: cell-based
[4] = Ratio between the binding affinities towards rat alpha3-beta4 and forebrain nACh receptor using [3H]EB as radioligand
[5] = Ratio between the binding affinities towards rat alpha2-beta4 and alpha2-beta2 nACh receptor using [3H]-EB as radioligand
[6] = target: Neuronal acetylcholine receptor; alpha3/beta4 (Rattus norvegicus, UniProt P04757+P12392); test: Binding affinity towards rat Nicotinic acetylcholine receptor alpha3-beta4 expressed in HEK293 cells using [3H]EB as radioligand; type: cell-based
Neuronal acetylcholine receptor; alpha3/beta4, sequence (P04757 whole entry): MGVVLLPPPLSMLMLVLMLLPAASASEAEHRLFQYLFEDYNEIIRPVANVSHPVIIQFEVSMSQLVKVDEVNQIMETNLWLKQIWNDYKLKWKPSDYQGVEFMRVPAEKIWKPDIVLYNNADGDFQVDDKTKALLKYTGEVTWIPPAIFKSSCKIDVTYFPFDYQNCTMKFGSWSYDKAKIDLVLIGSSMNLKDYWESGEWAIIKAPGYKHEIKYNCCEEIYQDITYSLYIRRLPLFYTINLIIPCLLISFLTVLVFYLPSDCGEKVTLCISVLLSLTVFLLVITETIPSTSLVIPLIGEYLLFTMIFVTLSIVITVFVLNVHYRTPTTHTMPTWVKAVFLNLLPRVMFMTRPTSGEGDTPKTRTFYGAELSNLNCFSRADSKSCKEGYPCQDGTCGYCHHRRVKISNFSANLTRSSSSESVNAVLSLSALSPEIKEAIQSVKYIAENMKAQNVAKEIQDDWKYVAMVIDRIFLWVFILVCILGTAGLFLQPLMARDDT
Neuronal acetylcholine receptor; alpha3/beta4, sequence (P12392 whole entry): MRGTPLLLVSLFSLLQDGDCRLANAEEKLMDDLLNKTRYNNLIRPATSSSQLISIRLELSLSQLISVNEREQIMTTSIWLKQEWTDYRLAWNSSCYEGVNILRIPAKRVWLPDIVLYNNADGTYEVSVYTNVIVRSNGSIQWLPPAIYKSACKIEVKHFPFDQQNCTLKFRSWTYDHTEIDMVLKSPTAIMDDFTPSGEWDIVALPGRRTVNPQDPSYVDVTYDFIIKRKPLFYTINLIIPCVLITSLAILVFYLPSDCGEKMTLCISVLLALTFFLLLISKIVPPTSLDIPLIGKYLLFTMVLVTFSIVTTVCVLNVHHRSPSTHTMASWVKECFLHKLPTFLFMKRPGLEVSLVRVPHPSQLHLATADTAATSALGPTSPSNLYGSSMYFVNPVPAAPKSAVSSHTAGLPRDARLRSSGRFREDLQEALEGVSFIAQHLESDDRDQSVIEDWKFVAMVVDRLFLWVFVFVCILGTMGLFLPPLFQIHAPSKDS

[7] = target: Neuronal acetylcholine receptor; alpha4/beta4 (Rattus norvegicus, UniProt P09483+P12392); test: Binding affinity towards rat Nicotinic acetylcholine receptor alpha4-beta4 expressed in HEK293 cells using [3H]EB as radioligand; type: cell-based
Neuronal acetylcholine receptor; alpha4/beta4, sequence (P09483 whole entry): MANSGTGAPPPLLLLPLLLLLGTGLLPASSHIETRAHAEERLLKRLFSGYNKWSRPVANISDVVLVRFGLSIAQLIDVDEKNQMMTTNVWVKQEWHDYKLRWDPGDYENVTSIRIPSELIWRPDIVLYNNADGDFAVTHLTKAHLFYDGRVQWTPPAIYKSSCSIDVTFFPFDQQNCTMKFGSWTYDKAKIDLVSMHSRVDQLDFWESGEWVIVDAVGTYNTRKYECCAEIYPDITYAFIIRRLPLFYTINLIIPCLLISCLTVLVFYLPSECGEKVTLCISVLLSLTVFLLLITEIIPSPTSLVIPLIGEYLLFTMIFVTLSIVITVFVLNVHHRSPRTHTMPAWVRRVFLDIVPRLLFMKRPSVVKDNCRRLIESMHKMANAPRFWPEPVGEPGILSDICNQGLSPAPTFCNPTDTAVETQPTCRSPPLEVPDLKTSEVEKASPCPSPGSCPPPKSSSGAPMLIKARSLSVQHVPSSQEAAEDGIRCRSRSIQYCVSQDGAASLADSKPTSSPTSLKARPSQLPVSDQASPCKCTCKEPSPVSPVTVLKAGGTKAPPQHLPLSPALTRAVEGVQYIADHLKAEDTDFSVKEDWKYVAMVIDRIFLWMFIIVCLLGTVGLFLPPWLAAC
Neuronal acetylcholine receptor; alpha4/beta4, sequence (P12392 whole entry): as the sequence (P12392 whole entry) above

[8] = target: Neuronal acetylcholine receptor; alpha3/beta2 (Rattus norvegicus, UniProt P04757+P12390); test: Binding affinity towards rat Nicotinic acetylcholine receptor alpha3-beta2 expressed in HEK293 cells using [3H]EB as radioligand; type: cell-based
Neuronal acetylcholine receptor; alpha3/beta2, sequence (P04757 whole entry): as the sequence (P04757 whole entry) above
Neuronal acetylcholine receptor; alpha3/beta2, sequence (P12390 whole entry): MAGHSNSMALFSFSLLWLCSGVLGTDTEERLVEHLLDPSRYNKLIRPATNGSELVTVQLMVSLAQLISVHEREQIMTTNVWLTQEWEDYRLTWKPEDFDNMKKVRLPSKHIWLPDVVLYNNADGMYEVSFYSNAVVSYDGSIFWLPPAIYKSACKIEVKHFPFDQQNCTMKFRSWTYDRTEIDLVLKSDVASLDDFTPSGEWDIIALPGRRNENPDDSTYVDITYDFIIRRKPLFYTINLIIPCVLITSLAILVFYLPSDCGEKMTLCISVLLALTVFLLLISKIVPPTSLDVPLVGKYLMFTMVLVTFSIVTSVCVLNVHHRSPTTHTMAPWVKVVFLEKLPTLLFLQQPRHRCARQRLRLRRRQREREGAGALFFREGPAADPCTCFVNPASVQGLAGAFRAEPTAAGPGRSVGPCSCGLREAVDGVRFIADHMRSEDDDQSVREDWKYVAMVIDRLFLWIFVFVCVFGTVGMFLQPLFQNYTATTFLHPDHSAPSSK

[9] = Ratio between the binding affinities towards rat alpha3-beta4 and alpha3-beta2 nACh receptor using [3H]EB as radioligand
[10] = target: Neuronal acetylcholine receptor; alpha4/beta2 (Rattus norvegicus, UniProt P09483+P12390); test: Binding affinity towards rat Nicotinic acetylcholine receptor alpha4-beta2 expressed in HEK293 cells using [3H]EB as radioligand; type: cell-based
Neuronal acetylcholine receptor; alpha4/beta2, sequence (P09483 whole entry): as the sequence (P09483 whole entry) above
Neuronal acetylcholine receptor; alpha4/beta2, sequence (P12390 whole entry): as the sequence (P12390 whole entry) above

[11] = target: Neuronal acetylcholine receptor; alpha2/beta2 (Rattus norvegicus, UniProt P12389+P12390); test: Binding affinity towards rat nicotinic acetylcholine receptor alpha2-beta2 expressed in HEK293 cells using [3H]EB as radioligand; type: cell-based
Neuronal acetylcholine receptor; alpha2/beta2, sequence (P12389 whole entry): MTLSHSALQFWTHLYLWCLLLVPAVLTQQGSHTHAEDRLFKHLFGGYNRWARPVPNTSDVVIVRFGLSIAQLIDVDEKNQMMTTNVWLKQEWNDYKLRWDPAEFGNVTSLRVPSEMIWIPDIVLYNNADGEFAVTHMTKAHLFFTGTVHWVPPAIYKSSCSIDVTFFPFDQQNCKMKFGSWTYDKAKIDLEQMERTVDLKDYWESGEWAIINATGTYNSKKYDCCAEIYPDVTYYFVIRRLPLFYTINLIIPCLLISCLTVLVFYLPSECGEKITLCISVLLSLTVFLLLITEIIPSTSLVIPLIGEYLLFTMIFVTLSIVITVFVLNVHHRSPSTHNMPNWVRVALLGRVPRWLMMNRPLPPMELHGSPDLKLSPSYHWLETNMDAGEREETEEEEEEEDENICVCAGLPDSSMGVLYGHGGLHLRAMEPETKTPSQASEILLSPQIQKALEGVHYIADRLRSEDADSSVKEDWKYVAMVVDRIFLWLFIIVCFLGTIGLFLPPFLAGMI
Neuronal acetylcholine receptor; alpha2/beta2, sequence (P12390 whole entry): as the sequence (P12390 whole entry) above

Row | SMILES | Ratio [1] | pKi [2] | pKi [3] | Ratio [4] | Ratio [5] | pKi [6] | pKi [7] | pKi [8] | Ratio [9] | pKi [10] | pKi [11]
1 | Ic1cncc(O[C@H]2CCN2)c1 | 387 | 9.85 | 7.33 | 2070 | 1520 | 6.54 | 7.62 | 9.38 | 690 | 10.21 | 10.51
2 | c1cncc(OC[C@@H]2CCN2)c1 | – | – | 7.77 | – | – | 7.14 | 8.15 | 9.62 | – | 9.85 | 10.13
3 | Clc1ccc(C2CC3CCC2N3)cn1 (racemic; form 1) [EPIBATIDINE] | – | – | 10.06 | – | – | – | – | – | – | – | –
4 | Clc1ccc(C2CC3CCC2N3)cn1 (racemic; form 2) [EPIBATIDINE] | – | – | 9.89 | – | – | – | – | – | – | – | –
5 | CC(=O)OCC[N+](C)(C)C [ACETYLCHOLINE] | – | – | 6.74 | – | – | – | – | – | – | – | 7.96
6 | C[N+](C)(C)CCOC(N)=O [CARBACHOL] | – | – | 6.19 | – | – | 5.32 | 5.89 | 5.96 | – | 6.23 | 6.68
7 | C[N+](C)(C)CCO [CHOLINE] | 1 | 4.38 | 4.68 | 1 | 1 | 4.32 | 4.47 | 4.43 | 1 | 4.43 | 4.74
8 | O=c1cccc2n1C[C@@H]1CNC[C@H]2C1 [CYTISINICLINE] | 1 | 8.60 | 8.26 | 84 | 4 | – | 8.66 | 7.43 | 6 | 8.82 | 8.85
9 | C[N+]1(C)CCN(c2ccccc2)CC1 [DIMETHYLPHENYLPIPERAZINIUM IODIDE] | – | – | 5.89 | – | – | 6.10 | – | 7.38 | – | – | 7.55
10 | CN1CCC[C@H]1c1cccnc1 [NICOTINE] | – | – | 6.89 | – | – | – | – | – | – | – | –
